Reference: patent US20040132707A1, “Catecholate beta-lactam conjugates, method for producing the same and the use thereof” (Gruenenthal GmbH, priority 2001, published 2004)
≈ marks a conversion by molar mass, not a printed value.

Columns and labels:
Assay in all cases: Microdilution MIC assay (NCCLS M7-A)
Format in all cases: cell-based
[1] = system: Escherichia coli ATCC 25922; conditions: strain ATCC 25922
Description: (§1) The antibacterial activity was tested by a microdilution assay according to National Committee for Clinical Laboratory Standards, 1998, Methods for dilution antimicrobial susceptibility tests for bacteria that grow aerobically, Approved standard M7-A, NCCLS, Villanova, Pa.
(§2) The minimal inhibition concentrations (MICs) were determined for the following bacterial strains: The Gram-negative strains Pseudomonas aeruginosa SG 137, ATCC 27853, Escherichia coli ATCC 25922, Klebsiella pneumoniae ATCC 10031, Stenotrophomonas maltophilia GN 12873, Serratia marcescens SG 621 as well as for the Gram-positive strain Staphylococcus aureus SG 511.

[2] = system: Klebsiella pneumoniae ATCC 10031; conditions: strain ATCC10031
Description: as §1, §2

[3] = system: Pseudomonas aeruginosa ATCC 27853; conditions: strain ATCC 27853
Description: as §1, §2

[4] = system: Pseudomonas aeruginosa SG 137; conditions: strain SG137
Description: as §1, §2

[5] = system: Serratia marcescens SG 621; conditions: strain SG621
Description: as §1, §2

[6] = system: Staphylococcus aureus SG 511; conditions: strain SG511
Description: as §1, §2

[7] = system: Stenotrophomonas maltophilia GN 12873; conditions: strain GN12873
Description: as §1, §2

Structure (SMILES)	MIC E. coli ATCC 25922 [1]	MIC Klebsiella pneumoniae ATCC10031 [2]	MIC Pseudomonas aeruginosa ATCC 27853 [3]	MIC Pseudomonas aeruginosa SG137 [4]	MIC Serratia marc. SG621 [5]	MIC Staph. aureus SG511 [6]	MIC Stenotroph. maltoph. GN12873 [7]
COC(=O)Oc1cccc(C(=O)N(C)CCCN(CC(=O)NC(C(=O)NC2C(=O)N3C2SC(C)(C)C3C(=O)O)c2ccccc2)C(=O)c2cccc(OC(=O)OC)c2OC(=O)OC)c1OC(=O)OC (stereo not shown) [Example 1, N-[3,7-Bis-(2,3-dimethoxycarbonyloxybenzoyl)-3,7-diaza-octanoyl]-ampicillin]	0.062 µg/mL (≈ 0.0631 µM)	0.008 µg/mL (≈ 0.00815 µM)	0.031 µg/mL (≈ 0.0316 µM)	0.031 µg/mL (≈ 0.0316 µM)	0.078 µg/mL (≈ 0.0794 µM)	10 µg/mL (≈ 10.2 µM)	0.062 µg/mL (≈ 0.0631 µM)
CC(=O)Oc1cccc(C(=O)NCCCCCCN(CCCCCCN(CC(=O)NC(C(=O)NC2C(=O)N3C2SC(C)(C)C3C(=O)O)c2ccccc2)C(=O)c2cccc(OC(C)=O)c2OC(C)=O)C(=O)c2cccc(OC(C)=O)c2OC(C)=O)c1OC(C)=O (stereo not shown) [Example 2, N-[3,10,17-Tris-(2,3-diacetoxybenzoyl)-3,10,17-triaza-heptadecanoyl]-ampicillin]	0.4 µg/mL (≈ 0.316 µM)	0.4 µg/mL (≈ 0.316 µM)	3.125 µg/mL (≈ 2.47 µM)	<0.05 µg/mL		6.25 µg/mL (≈ 4.94 µM)	
COC(=O)Oc1cccc(C(=O)N(CCN(CCn2c(=O)oc3c(OC(=O)OC)cccc3c2=O)CCn2c(=O)oc3c(OC(=O)OC)cccc3c2=O)CC(=O)NC(C(=O)NC2C(=O)N3C2SC(C)(C)C3C(=O)O)c2ccccc2)c1OC(=O)OC (stereo not shown) [Example 3, N-[6-Bis[2-(8-methoxycarbonyloxy-benzoxazin-2,4-dion-3-yl)-ethyl]-3-[2,3-di-(methoxycarbonyloxy)-benzoyl]-3,6-diaza-hexanoyl]-ampicillin]	0.2 µg/mL (≈ 0.163 µM)	<0.05 µg/mL	0.78 µg/mL (≈ 0.635 µM)	0.1 µg/mL (≈ 0.0814 µM)	0.2 µg/mL (≈ 0.163 µM)	12.5 µg/mL (≈ 10.2 µM)	0.4 µg/mL (≈ 0.326 µM)
CC(=O)Oc1cccc(C(=O)NCCCCCCN(CCCCCCN(CC(=O)NC(C(=O)NC2C(=O)N3C(C(=O)O)=C(Cl)CSC23)c2ccccc2)C(=O)c2cccc(OC(C)=O)c2OC(C)=O)C(=O)c2cccc(OC(C)=O)c2OC(C)=O)c1OC(C)=O (stereo not shown) [Example 4, N-[3,10,17-Tris-(2,3-diacetoxybenzoyl)-3,10,17-triaza-heptadecanoyl]-cefaclor]	0.2 µg/mL (≈ 0.156 µM)	<0.05 µg/mL	1.56 µg/mL (≈ 1.22 µM)	0.2 µg/mL (≈ 0.156 µM)		6.25 µg/mL (≈ 4.87 µM)	50 µg/mL (≈ 38.9 µM)
CCOC(=O)OC(C)OC(=O)[C@@H]1N2C(=O)[C@@H](NC(=O)[C@H](NC(=O)CN(CCCCCCN(CCCCCCNC(=O)c3cccc(OC(C)=O)c3OC(C)=O)C(=O)c3cccc(OC(C)=O)c3OC(C)=O)C(=O)c3cccc(OC(C)=O)c3OC(C)=O)c3ccccc3)[C@H]2SC1(C)C (stereo partly shown) [Example 5, N-[3,10,17-Tris-(2,3-diacetoxybenzoyl)-3,10,17-triaza-heptadecanoyl]-bacampicillin]	100 µg/mL (≈ 72.4 µM)	0.2 µg/mL (≈ 0.145 µM)	25 µg/mL (≈ 18.1 µM)	25 µg/mL (≈ 18.1 µM)	0.4 µg/mL (≈ 0.29 µM)		50 µg/mL (≈ 36.2 µM)
CC(=O)Oc1cccc(C(=O)NCCCN(CCCN(CC(=O)NC(C(=O)NC2C(=O)N3C2SC(C)(C)C3C(=O)O)c2ccccc2)C(=O)c2cccc(OC(C)=O)c2OC(C)=O)C(=O)c2cccc(OC(C)=O)c2OC(C)=O)c1OC(C)=O (stereo not shown) [Example 6, N-[3,7,11-Tris-(2,3-diacetoxybenzoyl)-3,7,11-triaza-undecanoyl]-ampicillin]	1.56 µg/mL (≈ 1.32 µM)	0.1 µg/mL (≈ 0.0847 µM)	1.56 µg/mL (≈ 1.32 µM)	0.2 µg/mL (≈ 0.169 µM)	0.78 µg/mL (≈ 0.66 µM)	6.25 µg/mL (≈ 5.29 µM)	0.4 µg/mL (≈ 0.339 µM)
COC(=O)Oc1cc(Cl)cc(C(=O)N(C)CCCN(CC(=O)NC(C(=O)NC2C(=O)N3C2SC(C)(C)C3C(=O)O)c2ccccc2)C(=O)c2cc(Cl)cc(OC(=O)OC)c2OC(=O)OC)c1OC(=O)OC (stereo not shown) [Example 7, N-[3,7-Bis-(5-chlor-2,3-dimethoxycarbonyloxybenzoyl)-3,7-diaza-octanoyl]-ampicillin]	0.05 µg/mL (≈ 0.0476 µM)	<0.005 µg/mL	0.1 µg/mL (≈ 0.0952 µM)	<0.005 µg/mL	0.02 µg/mL (≈ 0.019 µM)	12.5 µg/mL (≈ 11.9 µM)	0.02 µg/mL (≈ 0.019 µM)
COC(=O)Oc1cc(Br)cc(C(=O)N(C)CCCN(CC(=O)NC(C(=O)NC2C(=O)N3C2SC(C)(C)C3C(=O)O)c2ccccc2)C(=O)c2cc(Br)cc(OC(=O)OC)c2OC(=O)OC)c1OC(=O)OC (stereo not shown) [Example 8, N-{3,7-Bis-[5-brom-2,3-di-(methoxycarbonyloxy)-benzoyl]-3,7-diaza-octanoyl}-ampicillin]	<0.005 µg/mL	<0.005 µg/mL	0.05 µg/mL (≈ 0.0439 µM)	<0.005 µg/mL	0.02 µg/mL (≈ 0.0175 µM)	6.25 µg/mL (≈ 5.48 µM)	0.02 µg/mL (≈ 0.0175 µM)
CC(=O)Oc1cccc(C(=O)N(C)CCCN(CC(=O)N[C@@H](C(=O)N[C@@H]2C(=O)N3[C@@H]2SC(C)(C)[C@@H]3C(=O)O)c2ccccc2)C(=O)c2cccc(OC(C)=O)c2OC(C)=O)c1OC(C)=O [Example 9, N-[3,7-Bis-(2,3-diacetoxybenzoyl)-3,7-diaza-octanoyl]-ampicillin]	0.02 µg/mL (≈ 0.0218 µM)	<0.005 µg/mL	0.08 µg/mL (≈ 0.0872 µM)	0.005 µg/mL (≈ 0.00545 µM)	0.05 µg/mL (≈ 0.0545 µM)	3.12 µg/mL (≈ 3.4 µM)	0.02 µg/mL (≈ 0.0218 µM)
CC(=O)Oc1cccc(C(=O)NCCCCN(CC(=O)N[C@@H](C(=O)N[C@@H]2C(=O)N3[C@@H]2SC(C)(C)[C@@H]3C(=O)O)c2ccccc2)C(=O)c2cccc(OC(C)=O)c2OC(C)=O)c1OC(C)=O [Example 10, N-[3,8-Bis-(2,3-diacetoxybenzoyl)-3,8-diaza-octanoyl]-ampicillin]	<0.005 µg/mL	<0.005 µg/mL	0.05 µg/mL (≈ 0.0545 µM)	<0.005 µg/mL	<0.005 µg/mL	3.12 µg/mL (≈ 3.4 µM)	<0.005 µg/mL
CC(=O)Oc1cccc(C(=O)NCCCCN(CC(=O)NC(C(=O)NC2C(=O)N3C2SC(C)(C)C3C(=O)O)c2ccc(O)cc2)C(=O)c2cccc(OC(C)=O)c2OC(C)=O)c1OC(C)=O (stereo not shown) [Example 11, N-[3,8-Bis-(2,3-diacetoxybenzoyl)-3,8-diaza-octanoyl]-amoxicillin]	0.01 µg/mL (≈ 0.0107 µM)	<0.005 µg/mL	0.1 µg/mL (≈ 0.107 µM)	0.01 µg/mL (≈ 0.0107 µM)	<0.005 µg/mL	3.12 µg/mL (≈ 3.34 µM)	<0.005 µg/mL
COC(=O)Oc1cc(Cl)c(Cl)c(C(=O)N(C)CCCN(CC(=O)NC(C(=O)NC2C(=O)N3C2SC(C)(C)C3C(=O)O)c2ccccc2)C(=O)c2c(Cl)c(Cl)cc(OC(=O)OC)c2OC(=O)OC)c1OC(=O)OC (stereo not shown) [Example 12, N-{3,7-Bis-(2,3-dichlor-5,6-di-methoxycarbonyloxy-benzoyl)-3,7-diaza-octanoyl}-ampicillin]	0.02 µg/mL (≈ 0.0179 µM)	<0.005 µg/mL	0.1 µg/mL (≈ 0.0893 µM)	0.05 µg/mL (≈ 0.0447 µM)	0.05 µg/mL (≈ 0.0447 µM)	3.12 µg/mL (≈ 2.79 µM)	0.05 µg/mL (≈ 0.0447 µM)
CC(=O)Oc1cccc(C(=O)NCCN(CCNC(=O)c2cccc(OC(C)=O)c2OC(C)=O)CCN(CC(=O)NC(C(=O)NC2C(=O)N3C2SC(C)(C)C3C(=O)O)c2ccccc2)C(=O)c2cccc(OC(C)=O)c2OC(C)=O)c1OC(C)=O (stereo not shown) [Example 13, N-{[6-Bis-2,3-(diacetoxybenzoyl)-2-aminoethyl]-3-(2,3-diacetoxybenzoyl)-3,6-diaza-hexanoyl}-ampicillin]	0.78 µg/mL (≈ 0.652 µM)	0.1 µg/mL (≈ 0.0836 µM)	3.12 µg/mL (≈ 2.61 µM)	0.1 µg/mL (≈ 0.0836 µM)	0.78 µg/mL (≈ 0.652 µM)	1.56 µg/mL (≈ 1.3 µM)	0.2 µg/mL (≈ 0.167 µM)
COC(=O)Oc1cccc(C(=O)NCC(O)CN(CC(=O)NC(C(=O)NC2C(=O)N3C2SC(C)(C)C3C(=O)O)c2ccccc2)C(=O)c2cccc(OC(=O)OC)c2OC(=O)OC)c1OC(=O)OC (stereo not shown) [Example 14, N-[3,7-Bis-(2,3-dimethoxycarbonyloxybenzoyl)-3,7-diaza-5-hydroxy-heptanoyl]-ampicillin]	6.25 µg/mL (≈ 6.35 µM)	0.2 µg/mL (≈ 0.203 µM)	1.56 µg/mL (≈ 1.59 µM)	0.1 µg/mL (≈ 0.102 µM)	1.56 µg/mL (≈ 1.59 µM)	0.4 µg/mL (≈ 0.407 µM)	0.4 µg/mL (≈ 0.407 µM)
